{"source": "paper PMC6161288", "about": "“Bioavailability of Eurycomanone in Its Pure Form and in a Standardised Eurycoma longifolia Water Extract” (Pharmaceutics, 2018)", "key": {"[1]": {"assay": "Lipophilicity, shake flask method with octanol and buffer (pH 7.4)", "type": "physicochemical", "settings": "pH 7.4, octanol/buffer shake flask; read-out: distribution coefficient log D", "procedure": "The lipophilicity of eurycomanone was estimated using the shake flask method with octanol and buffer (pH 7.4). Eurycomanone (5 µL) at 5 mM concentration is added to octanol (495 µL) and DMSO (495 µL) and also into the aqueous and octanol phase in a 1:1 ratio ([…] of octanol phase and 247.5 µL of aqueous phase). The octanol and aqueous phases were prepared using a saturation process, where equal amounts of D-PBS (pH 7.4) and octanol were saturated (300 rpm, room temperature) for 24 h before being separated and kept at room temperature. The prepared mixtures were vortexed and kept on the shaker (300 rpm) at room temperature for 16 h. The mixtures were allowed to stand for 30 min, and 200 µL of solution was transferred and sent for HPLC analysis."}, "[2]": {"assay": "Chemical stability in simulated gastrointestinal fluids", "type": "physicochemical", "settings": "GSF (pH 2), FESSIF (pH 5.0), FASSIF (pH 6.5)", "procedure": "The chemical stability of eurycomanone was estimated in gastric simulated fluid (GSF), pH 2; fasted simulated intestinal fluid (FASSIF), pH 6.5; fed simulated intestinal fluid (FESSIF), pH 5.0; and in 150 mM NaHCO3 at pH 9.2. Eurycomanone (3 µL) at 5 mM was added to 297 µL of the respective buffers. The mixture (100 µL) was added to 100 µL of ACN at time points 1 and 3 h and sent for LC-MS/MS analysis."}, "[3]": {"assay": "Plasma protein binding (rapid equilibrium dialysis), human", "type": "in vitro ADME", "settings": "pH 7.4; human plasma, 10 µM, 37 °C, 4 h; read-out: percentage bound to plasma protein (converted)", "procedure": "(§1) The ability of eurycomanone to bind plasma protein was analysed in five types of plasma (mice, rat, dog, monkey, and human). Each type of plasma was spiked with eurycomanone (1 mM) to make the 10 µM test concentration of eurycomanone in the plasma. Equilibrium dialysis buffer (500 µL) at pH 7.4 was added to the right chamber in rapid equilibrium dialysis (RED), while the spiked plasma (300 µL) was added to the left chamber. The Teflon base plate was covered with aluminium foil and left on the shaking incubator at 37 °C for 4 h. The matrix was balanced by mixing 100 µL of the equilibrium buffer with the spiked plasma from the left chamber in RED before adding the stop solution (350 µL) to precipitate out the protein. The supernatant (10,000 rpm, 10 min, 4 °C) was collected and analysed using LC-MS/MS. The standards (propranolol, warfarin, and acebutalol) were analysed in duplicates."}, "plasma protein": {"system": "plasma protein", "assay": "Plasma protein binding (rapid equilibrium dialysis), human", "type": "in vitro ADME", "settings": "range over all species' plasma apart from dog (rat, monkey, mice, human)", "procedure": "as §1"}}, "data": [{"smiles": "C=C1[C@@H](O)[C@]2(O)OC[C@]34[C@H]2[C@@]2(C)[C@H](O)C(=O)C=C(C)[C@@H]2C[C@H]3OC(=O)[C@H](O)[C@@]14O", "note": "[Eurycomanone]", "values": [{"measurement": "logD at 16 h", "setting": "[1]", "result": -0.35}, {"measurement": "chemical stability (percentage remaining after 3 h of incubation)", "setting": "[2]", "result": "high stability"}, {"measurement": "chemical stability (percentage remaining after 3 h of incubation)", "setting": "[2]; listed as eurycomanone", "result": "chemically stable across all pH values tested"}, {"measurement": "fraction unbound at 4 h, 10 µM", "setting": "[3]", "result": 0.611}, {"measurement": "fraction of unbound eurycomanone", "setting": "plasma protein", "result": "61.1–78.4%"}]}]}
